Results reported in ChEMBL document CHEMBL1944578, “Synthesis and anticonvulsant activity of novel 2,6-diketopiperazine derivatives. Part 2: Perhydropyrido[1,2-a]pyrazines” (Eur J Med Chem, 2012).
Active and inactive are the calls of the source. The rule behind the calls is not given here.

Tests used:
Mus musculus [1] = test: Anticonvulsant activity in Carworth farms No.1 albino mouse assessed as protection against maximum electroshock at 300 mg/kg, ip measured after 4 hrs; assay type: functional, organism-based; set-up: dose 300 mg/kg
Mus musculus [2] = test: Anticonvulsant activity in Carworth farms No.1 albino mouse assessed as protection against subcutaneous metrazole-induced seizures at 300 mg/kg, ip measured after 0.5 hrs; assay type: functional, organism-based; set-up: dose 300 mg/kg
Rattus norvegicus [3] = test: Anticonvulsant activity in Sprague-Dawley rat assessed as protection against maximum electroshock at 30 mg/kg, po measured after 1 hr; assay type: functional, organism-based; set-up: dose 30 mg/kg
Mus musculus [4] = test: Neurotoxicity in Carworth farms No.1 albino mouse assessed as neurological impairment at 100 mg/kg, ip measured after 1 hr; assay type: toxicity, organism-based; set-up: dose 100 mg/kg, route intraperitoneal; details: in vivo
Rattus norvegicus [5] = test: Toxicity in Sprague-Dawley rat assessed as body weight change in unprotected animals at 900 mg/kg, ip measured after 0.5 hrs; assay type: organism-based; set-up: dose 900 mg/kg, route intraperitoneal; details: in vivo
Rattus norvegicus [6] = test: Neurotoxicity in Sprague-Dawley rat assessed as neurological impairment at 30 mg/kg, po measured after 1 hr; assay type: toxicity, organism-based; set-up: dose 30 mg/kg, route oral; details: in vivo
Mus musculus [7] = test: Anticonvulsant activity in Carworth farms No.1 albino mouse assessed as protection against subcutaneous metrazole-induced seizures at 30 mg/kg, ip measured after 0.5 hrs; assay type: functional, organism-based; set-up: dose 30 mg/kg
Mus musculus [8] = test: Anticonvulsant activity in ip dosed Carworth farms No.1 albino mouse assessed as protection against 6 Hz electric current-induced seizure measured after 0.25 hrs; assay type: functional
Mus musculus [9] = test: Neurotoxicity in Carworth farms No.1 albino mouse assessed as neurological impairment at 100 mg/kg, ip measured after 0.25 hrs; assay type: toxicity, organism-based; set-up: dose 100 mg/kg, route intraperitoneal; details: in vivo
Rattus norvegicus [10] = test: Anticonvulsant activity in Sprague-Dawley rat assessed as protection against maximum electroshock at 30 mg/kg, po measured after 4 hrs; assay type: functional, organism-based; set-up: dose 30 mg/kg
Mus musculus [11] = species on record: Mus musculus; test: Anticonvulsant activity in electric shock-induced Carworth farms No.1 albino mouse assessed as time of peak effect; assay type: functional
Mus musculus [12] = test: Anticonvulsant activity in Carworth farms No.1 albino mouse assessed as protection against 6 Hz electric current-induced seizure at 100 mg/kg, ip measured after 2 hrs; assay type: functional, organism-based; set-up: dose 100 mg/kg
Mus musculus [13] = test: Anticonvulsant activity in Carworth farms No.1 albino mouse assessed as protection against subcutaneous metrazole-induced seizures at 100 mg/kg, ip measured after 0.5 hrs; assay type: functional, organism-based; set-up: dose 100 mg/kg
Rattus norvegicus [14] = test: Anticonvulsant activity in Sprague-Dawley rat assessed as protection against maximum electroshock at 30 mg/kg, po measured after 0.25 hrs; assay type: functional, organism-based; set-up: dose 30 mg/kg
Rattus norvegicus [15] = test: Anticonvulsant activity in Sprague-Dawley rat assessed as protection against maximum electroshock at 30 mg/kg, po measured after 2 hrs; assay type: functional, organism-based; set-up: dose 30 mg/kg
Mus musculus [16] = test: Neurotoxicity in Carworth farms No.1 albino mouse assessed as neurological impairment at 100 mg/kg, ip measured after 4 hrs; assay type: toxicity, organism-based; set-up: dose 100 mg/kg, route intraperitoneal; details: in vivo
Rattus norvegicus [17] = test: Neurotoxicity in Sprague-Dawley rat assessed as neurological impairment at 30 mg/kg, po measured after 0.5 hrs; assay type: toxicity, organism-based; set-up: dose 30 mg/kg, route oral; details: in vivo
Mus musculus [18] = test: Neurotoxicity in Carworth farms No.1 albino mouse assessed as neurological impairment at 100 mg/kg, ip measured after 2 hr; assay type: toxicity, organism-based; set-up: dose 100 mg/kg, route intraperitoneal; details: in vivo
Mus musculus [19] = test: Anticonvulsant activity in Carworth farms No.1 albino mouse assessed as protection against subcutaneous metrazole-induced seizures at 300 mg/kg, ip measured after 4 hrs; assay type: functional, organism-based; set-up: dose 300 mg/kg
Mus musculus [20] = test: Neurotoxicity in Carworth farms No.1 albino mouse assessed as neurological impairment at 300 mg/kg, ip measured after 0.5 hrs; assay type: toxicity, organism-based; set-up: dose 300 mg/kg, route intraperitoneal; details: in vivo
Mus musculus [21] = test: Neurotoxicity in Carworth farms No.1 albino mouse assessed as neurological impairment at 300 mg/kg, ip measured after 4 hrs; assay type: toxicity, organism-based; set-up: dose 300 mg/kg, route intraperitoneal; details: in vivo
Mus musculus [22] = test: Anticonvulsant activity in Carworth farms No.1 albino mouse assessed as protection against maximum electroshock at 100 mg/kg, ip measured after 0.5 hrs; assay type: functional, organism-based; set-up: dose 100 mg/kg
Mus musculus [23] = test: Anticonvulsant activity in Carworth farms No.1 albino mouse assessed as protection against maximum electroshock at 30 mg/kg, ip measured after 4 hrs; assay type: functional, organism-based; set-up: dose 30 mg/kg
Mus musculus [24] = test: Anticonvulsant activity in Carworth farms No.1 albino mouse assessed as protection against subcutaneous metrazole-induced seizures at 100 mg/kg, ip measured after 4 hrs; assay type: functional, organism-based; set-up: dose 100 mg/kg
Rattus norvegicus [25] = test: Anticonvulsant activity in Sprague-Dawley rat assessed as protection against pilocarpine-induced status at 900 mg/kg, ip measured after 0.5 hrs; assay type: functional, organism-based; set-up: dose 900 mg/kg
Mus musculus [26] = test: Anticonvulsant activity in Carworth farms No.1 albino mouse assessed as protection against maximum electroshock at 30 mg/kg, ip measured after 0.5 hrs; assay type: functional, organism-based; set-up: dose 30 mg/kg
Mus musculus [27] = test: Anticonvulsant activity in Carworth farms No.1 albino mouse assessed as protection against maximum electroshock at 300 mg/kg, ip measured after 0.5 hrs; assay type: functional, organism-based; set-up: dose 300 mg/kg
Rattus norvegicus [28] = test: Toxicity in Sprague-Dawley rat assessed as mortality at 900 mg/kg, ip measured after 0.5 hrs; assay type: organism-based; set-up: dose 900 mg/kg, route intraperitoneal; details: in vivo
Rattus norvegicus [29] = test: Neurotoxicity in Sprague-Dawley rat assessed as neurological impairment at 30 mg/kg, po measured after 2 hrs; assay type: toxicity, organism-based; set-up: dose 30 mg/kg, route oral; details: in vivo
Rattus norvegicus [30] = test: Neurotoxicity in Sprague-Dawley rat assessed as neurological impairment at 30 mg/kg, po measured after 0.25 hrs; assay type: toxicity, organism-based; set-up: dose 30 mg/kg, route oral; details: in vivo
Mus musculus [31] = test: Neurotoxicity in Carworth farms No.1 albino mouse assessed as neurological impairment at 100 mg/kg, ip measured after 0.5 hrs; assay type: toxicity, organism-based; set-up: dose 100 mg/kg, route intraperitoneal; details: in vivo
Rattus norvegicus [32] = test: Toxicity in Sprague-Dawley rat assessed as body weight change in protected animals at 900 mg/kg, ip measured after 0.5 hrs; assay type: organism-based; set-up: dose 900 mg/kg, route intraperitoneal; details: in vivo
Mus musculus [33] = test: Anticonvulsant activity in Carworth farms No.1 albino mouse assessed as protection against subcutaneous metrazole-induced seizures at 30 mg/kg, ip measured after 4 hrs; assay type: functional, organism-based; set-up: dose 30 mg/kg
Mus musculus [34] = test: Anticonvulsant activity in Carworth farms No.1 albino mouse assessed as protection against 6 Hz electric current-induced seizure at 100 mg/kg, ip measured after 4 hrs; assay type: functional, organism-based; set-up: dose 100 mg/kg
Mus musculus [35] = test: Neurotoxicity in Carworth farms No.1 albino mouse assessed as neurological impairment at 30 mg/kg, ip measured after 4 hrs; assay type: toxicity, organism-based; set-up: dose 30 mg/kg, route intraperitoneal; details: in vivo
Mus musculus [36] = test: Anticonvulsant activity in Carworth farms No.1 albino mouse assessed as protection against 6 Hz electric current-induced seizure at 100 mg/kg, ip measured after 0.25 hrs; assay type: functional, organism-based; set-up: dose 100 mg/kg
Rattus norvegicus [37] = test: Neurotoxicity in Sprague-Dawley rat assessed as sedation at 900 mg/kg, ip measured after 0.5 hrs; assay type: toxicity, organism-based; set-up: dose 900 mg/kg, route intraperitoneal; details: in vivo
Rattus norvegicus [38] = test: Neurotoxicity in Sprague-Dawley rat assessed as neurological impairment at 30 mg/kg, po measured after 4 hrs; assay type: toxicity, organism-based; set-up: dose 30 mg/kg, route oral; details: in vivo
Mus musculus [39] = test: Anticonvulsant activity in Carworth farms No.1 albino mouse assessed as protection against 6 Hz electric current-induced seizure at 100 mg/kg, ip measured after 0.5 hrs; assay type: functional, organism-based; set-up: dose 100 mg/kg
Mus musculus [40] = test: Neurotoxicity in Carworth farms No.1 albino mouse assessed as neurological impairment at 30 mg/kg, ip measured after 0.5 hrs; assay type: toxicity, organism-based; set-up: dose 30 mg/kg, route intraperitoneal; details: in vivo
Mus musculus [41] = test: Anticonvulsant activity in Carworth farms No.1 albino mouse assessed as protection against maximum electroshock at 100 mg/kg, ip measured after 4 hrs; assay type: functional, organism-based; set-up: dose 100 mg/kg
Rattus norvegicus [42] = test: Anticonvulsant activity in Sprague-Dawley rat assessed as protection against maximum electroshock at 30 mg/kg, po measured after 0.5 hrs; assay type: functional, organism-based; set-up: dose 30 mg/kg
Mus musculus [43] = test: Anticonvulsant activity in Carworth farms No.1 albino mouse assessed as protection against 6 Hz electric current-induced seizure at 100 mg/kg, ip measured after 1 hrs; assay type: functional, organism-based; set-up: dose 100 mg/kg

In the case of O=C1NC(=O)[C@@H](c2ccccc2)N2CCCC[C@H]12, the Activity (Mus musculus [1]) is reported as “inactive”, the Activity (Mus musculus [2]) is reported as “inactive” and the Activity (Rattus norvegicus [3]) is reported as “inactive”. For the same compound, the Activity (Mus musculus [4]) was “Non-toxic”, the Activity (Rattus norvegicus [5]) was -20 g and the Activity (Rattus norvegicus [6]) was “Non-toxic”. For the same compound, the Activity (Mus musculus [7]) was “inactive”, the ED50 (Mus musculus [8]) was 38.2 mg/kg and the Activity (Mus musculus [9]) was “Non-toxic”. The Activity (Rattus norvegicus [10]) was “Active”, the Time (Mus musculus [11]) was 0.25 h and the Activity (Mus musculus [12]) was “Active”. The Activity (Mus musculus [13]) was “inactive”, the Activity (Rattus norvegicus [14]) was “inactive” and the Activity (Rattus norvegicus [15]) was “inactive”. The Activity (Mus musculus [16]) was “Non-toxic”, the Activity (Rattus norvegicus [17]) was “Non-toxic” and the Activity (Mus musculus [18]) was “Non-toxic”. For the same compound, the Activity (Mus musculus [19]) was “inactive”, the Activity (Mus musculus [20]) was “Non-toxic” and the Activity (Mus musculus [21]) was “Non-toxic”. The Activity (Mus musculus [22]) was “inactive”, the Activity (Mus musculus [23]) was “inactive” and the Activity (Mus musculus [24]) was “inactive”. The Activity (Rattus norvegicus [25]) was “Active”, the Activity (Mus musculus [26]) was “inactive” and the Activity (Mus musculus [27]) was “inactive”. The Activity (Rattus norvegicus [28]) was “Toxic”, the Activity (Rattus norvegicus [29]) was “Non-toxic” and the Activity (Rattus norvegicus [30]) was “Non-toxic”. The Activity (Mus musculus [31]) was “Non-toxic”, the Activity (Rattus norvegicus [32]) was -17.5 g and the Activity (Mus musculus [33]) was “inactive”. For the same compound, the Activity (Mus musculus [34]) was “inactive”, the Activity (Mus musculus [35]) was “Non-toxic” and the Activity (Mus musculus [36]) was “Active”. For the same compound, the Activity (Rattus norvegicus [37]) was “Toxic”, the Activity (Rattus norvegicus [38]) was “Non-toxic” and the Activity (Mus musculus [39]) was “Active”. The Activity (Mus musculus [40]) was “Non-toxic”, the Activity (Mus musculus [41]) was “inactive” and the Activity (Rattus norvegicus [42]) was “inactive”. The Activity (Mus musculus [43]) was “Active”.
